Assay [1] deals with T1, DA D-2 (Rattus norvegicus, UniProt P61169).
T1 construct: Male Wistar rats (Mol:Wist) weighing about 200 g at the time of operation are used; from tissue; host or cells: living male Wistar (Mol:Wist) rats with unilateral 6-OHDA lesions (in vivo, endogenous receptor)
Description: antagonism of pergolide-induced circling behaviour in rats with unilateral 6-OHDA lesions. As to conditions: sc. The assay is classed as in vivo. As to the method:
ANTAGONISM OF PERGOLIDE-INDUCED CIRCLING BEHAVIOUR IN RATS WITH UNILATERAL 6-OHDA LESIONS
Dopamine (DA) D-2 agonists induce contralateral circling behaviour in rats with 6-OHDA lesions. Pergolide-induced circling is antagonized by DA D-2 antagonists.
Male Wistar rats (Mol:Wist) weighing about 200 g at the time of operation are used. Unilateral lesions are made in pentobarbital anaesthetized rats by injection of 6-OHDA. HCl 9.7 μg/μl (equivalent to 8 μg free base) per 4 min. into the rostral tip of the substantia nigra. The saline solution contains ascorbic acid 0.2 mg/ml, is bubbled with N2 and is kept ice-cold. The experiments are done when stable contralateral circling responses to pergolide (0.05 μmol/kg, s.c.) are obtained. The circling response is measured in rotometer bowls. Only rats showing more than 400 complete turns in 2 hrs control session are used. Dose-response curves are obtained by alternating test and control sessions on a weekly basis. The antagonists are injected s.c. 2 hrs before the agonist. The effect of individual doses of test drugs is calculated as per cent of the mean effect of control sessions one week before and one week after the test session for each rat. ED50 values are calculated by log-probit analysis. Four to eight rats are used at each dosage.

The target in assay [2] is α1 adrenoceptors. Description: inhibition of 3H-prazosin binding to α1 adrenoceptors in rat brain in vitro. As to conditions: 3H-prazosin 0.25 nM, rat brain membranes, read-out: Binding IC50, 3H Praz. As to the method:
INHIBITION OF ^3 H-PRAZOSIN BINDING TO α1 ADRENOCEPTORS IN RAT BRAIN IN VITRO
Method and results in Hyttel and Larsen, J. Neurochem, 44, 1615-1622, 1985; Skarsfeldt and Hyttel, Eur. J. Pharmacol. 125, 323-340, 1986.
Male Wistar (Mol:Wist) rats (125-200 g) are sacrificed and brain tissue is dissected and weighed. The tissue is homogenized (Ultra Turrax, 10 sec.) in 10 ml of ice-cold […] Tris buffer pH 7.7 (at 25° C.). The homogenate is centrifuged twice at 20,000 g for 10 min. at 4° C. with rehomogenization of the pellet in 10 ml ice-cold buffer. The final pellet is homogenized in 400 vol (w/v) ice-cold buffer.
Incubation tubes kept on ice in triplicate receive 100 μl of drug solution in water (or water for total binding) and 4000 μl of tissue suspension (final tissue content corresponds to 10 mg original tissue). The binding experiment is initiated by addition of 100 μl of ^3 H-Prazosin (final concentration 0.25 nM) and by placing the tubes in a 25° C. water bath. After incubation for 20 min. the samples are filtered under vacuum (0-50 mBar) through Whatman GF/F filters (25 mm). The tubes are rinsed with 5 ml ice-cold buffer which then are poured on the filters. Thereafter, the filters are washed with 5 ml of buffer. The filters are placed in counting vials and 4 ml of appropriate scintillation fluid (e.g. Picofluor™15) are added. After shaking for 1 h and storage 2 hrs in the dark the content of radioactivity is determined by liquid scintillation counting. Specific binding is obtained by subtracting the nonspecific binding in the presence of 1 μM of Prazosin.
For determination of the inhibition of binding five concentrations of drugs covering 3 decades are used.
The measured cpm are plotted against drug concentration on semilogarithmic paper and the best fitting S-shaped curve is drawn. The IC50 value is determined as the concentration at which the binding is 50% of the total binding in control samples minus the nonspecific binding in the presence of 1 μM of Prazosin. ^3 H-Prazosin=[furoyl-5-^3 H]-Prazosin from New England Nuclear, specific activity approximately 20 Ci/mmol.

Assay [3] deals with T2, 5-HT2 (Rattus norvegicus, UniProt P14842).
T2 construct: Four rats, male Wistar (Mol:Wist) SPF rats weighing 170-240 g; from tissue; host or cells: living male Wistar (Mol:Wist) SPF rats (in vivo, endogenous receptor)
Description: quipazine inhibition (quipazine-induced head twitches in rats). The assay is classed as in vivo. The conditions noted are these: sc, 24 h, read-out: Quipazine inhibition ED50, 24h (sc).

Where [4] appears, read: read-out: Pergolide rot. inhibition ED50, 2h (sc), 6-OHDA lesions, s.c., 2 h before pergolide.

Structures are written as SMILES. Where two headings read alike, the source gives them in different places. Where only a bound is given, the exact number is not on record here.

For orientation: ED50 means the dose that gives a 50% effect, or the effect in half of the subjects. Broadly, the IC50 is the midpoint of a concentration-inhibition curve.

T1 sequence (P61169 whole entry): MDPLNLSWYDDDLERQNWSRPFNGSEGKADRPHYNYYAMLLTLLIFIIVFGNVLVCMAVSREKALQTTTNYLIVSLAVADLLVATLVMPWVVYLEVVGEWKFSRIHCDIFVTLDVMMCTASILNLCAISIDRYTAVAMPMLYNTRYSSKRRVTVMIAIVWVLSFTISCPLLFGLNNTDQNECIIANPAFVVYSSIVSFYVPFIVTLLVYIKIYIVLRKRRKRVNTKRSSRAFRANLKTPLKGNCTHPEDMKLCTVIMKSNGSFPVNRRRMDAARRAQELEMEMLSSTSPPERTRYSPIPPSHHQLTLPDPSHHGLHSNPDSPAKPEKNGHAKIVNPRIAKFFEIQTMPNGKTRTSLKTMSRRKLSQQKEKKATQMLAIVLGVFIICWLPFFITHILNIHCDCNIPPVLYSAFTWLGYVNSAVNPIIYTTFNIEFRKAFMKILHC
T2 sequence (P14842 whole entry): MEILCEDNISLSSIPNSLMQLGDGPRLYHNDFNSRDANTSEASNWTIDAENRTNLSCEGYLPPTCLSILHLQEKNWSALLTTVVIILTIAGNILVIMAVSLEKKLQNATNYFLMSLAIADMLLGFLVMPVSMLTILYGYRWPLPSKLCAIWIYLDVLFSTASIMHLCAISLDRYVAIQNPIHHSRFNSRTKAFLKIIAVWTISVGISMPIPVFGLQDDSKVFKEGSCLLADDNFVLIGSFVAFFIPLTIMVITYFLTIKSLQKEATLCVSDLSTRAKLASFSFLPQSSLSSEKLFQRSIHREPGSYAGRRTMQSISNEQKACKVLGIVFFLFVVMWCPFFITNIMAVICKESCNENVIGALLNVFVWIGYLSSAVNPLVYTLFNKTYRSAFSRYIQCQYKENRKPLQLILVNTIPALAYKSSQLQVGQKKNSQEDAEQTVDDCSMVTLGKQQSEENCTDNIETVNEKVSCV

Regarding `CC(C)N1CCN(CCN2CCC(c3cn(-c4ccc(F)cc4)c4cc(Cl)ccc34)CC2)C1=O` [Compound 4a, 6-chloro-1-(4-fluorophenyl)-3-[1-[2-[3-(2-propyl)-2-imidazolidinon-1-yl]ethyl]-4-piperidyl]-1H-indole], the ED50 in assay [1] (2 h, read-out: Pergolide rot. inhibition ED50, 2h (sc)) is over 17 µmol/kg. Moreover, in assay [2], the IC50 turned out to be 70 nM.
Consider `OCCN1CCN(c2cn(-c3ccc(F)cc3)c3ccc(C(F)(F)F)cc23)CC1` [Lu 21-152, 1-(4-fluorophenyl)-3-[4-(2-hydroxyethyl)-1-piperazinyl]-5-trifluoromethyl-1H-indole, reference compound], for which the ED50 in assay [1] (setting [4]) was found to be 0.02 µmol/kg; in assay [3], 0.15 µmol/kg. Besides, the IC50 in assay [2] was 7.6 nM.
In the case of `Cc1ccc2c(C3CCN(CCN4CCN(C(C)C)C4=O)CC3)cn(-c3ccc(F)cc3)c2c1` [Compound 5a, 1-(4-fluorophenyl)-6-methyl-3-[1-[2-[3-(2-propyl)-2-imidazolidinon-1-yl]ethyl]-4-piperidyl]-1H-indole], in assay [1] (setting [4]), the ED50 is over 18 µmol/kg. Also, the half-inhibitory concentration (IC50) in assay [2] came out at 85 nM.
The corresponding values for `Cc1ccc2c(C3CCN(CCN4CCNC4=O)CC3)cn(-c3ccc(F)cc3)c2c1` [Compound 4g, 1-(4-fluorophenyl)-3-[1-[2-(2-imidazolidinon-1-yl)ethyl]-4-piperidyl]-6-methyl-1H-indole] are over 24 µmol/kg and 24 nM.

Values taken from patent US5216001A, “Indole derivatives” (H. Lunbeck A/S, priority 1990, dated 1993).
